Reference: paper PMC3070799 (Neuropharmacology, 2011)
Read-outs that look alike come from different tables or passages of the source.

Key:
human 5-HT3AB receptors [1] = target: T1, human 5-HT3AB receptors (Homo sapiens, UniProt O95264+P46098); test: Two-electrode voltage clamp of 5-HT-induced currents in Xenopus oocytes; format: cell-based; conditions: for IC50 at heteromers (5-HT3AB) relative to 5-HT3A: 5-HT3AB versus 5-HT3A; for IC50: oocytes; for Hill slope: concentration-inhibition curve, 28 μM 5-HT
T1 construct: expressed in transfected cells; host or cells: Xenopus laevis oocytes (cRNA from pGEMHE)
T1 sequence (P46098 24-478): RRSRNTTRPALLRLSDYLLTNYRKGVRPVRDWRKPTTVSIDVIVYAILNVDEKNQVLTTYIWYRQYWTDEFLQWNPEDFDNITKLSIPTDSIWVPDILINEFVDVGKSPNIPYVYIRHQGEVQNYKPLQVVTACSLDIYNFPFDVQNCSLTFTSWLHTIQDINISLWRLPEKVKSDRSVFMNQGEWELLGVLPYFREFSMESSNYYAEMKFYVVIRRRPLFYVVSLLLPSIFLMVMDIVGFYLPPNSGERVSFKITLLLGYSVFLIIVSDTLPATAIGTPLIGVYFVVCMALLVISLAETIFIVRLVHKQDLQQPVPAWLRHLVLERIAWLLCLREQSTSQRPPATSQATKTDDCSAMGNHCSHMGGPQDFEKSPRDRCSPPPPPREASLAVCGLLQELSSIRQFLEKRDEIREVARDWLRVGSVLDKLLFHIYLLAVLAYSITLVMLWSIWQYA
T1 sequence (O95264 22-441): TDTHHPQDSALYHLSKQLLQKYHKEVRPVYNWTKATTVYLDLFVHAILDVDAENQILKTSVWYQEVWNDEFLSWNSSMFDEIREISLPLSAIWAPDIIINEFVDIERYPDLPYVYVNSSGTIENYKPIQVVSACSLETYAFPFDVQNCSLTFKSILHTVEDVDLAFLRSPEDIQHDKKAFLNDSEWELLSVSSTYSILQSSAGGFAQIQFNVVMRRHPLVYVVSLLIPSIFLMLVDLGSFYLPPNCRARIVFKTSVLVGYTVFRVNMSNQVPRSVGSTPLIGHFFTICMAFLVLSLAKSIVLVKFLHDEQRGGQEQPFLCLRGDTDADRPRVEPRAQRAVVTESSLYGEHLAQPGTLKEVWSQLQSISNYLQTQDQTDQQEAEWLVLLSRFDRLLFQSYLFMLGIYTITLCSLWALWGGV
Description: Stage V and VI oocytes were injected with 50 nl of ∼300 ng μl^−1 cRNA, and currents were recorded 1–4 days post-injection. A ratio of 1:3 (A:B) was used for the expression of heteromeric 5-HT3 receptors.
Xenopus laevis oocyte positive females were purchased from NASCO (Fort Atkinson, Wisconsin, USA) and maintained according to standard methods.
Currents were filtered at a frequency of 1 kHz. Micro-electrodes were fabricated from borosilicate glass (GC120TF-10, Harvard Apparatus, Edenbridge, Kent, UK) using a two stage horizontal pull (P-87, Sutter Instrument Company, California, USA) and filled with 3 M KCl. […] Oocytes were perfused with saline at a rate of 15 ml min^−1. Drug application was via a simple gravity fed system calibrated to run at the same rate. Extracellular saline contained (mM), 96 NaCl, 2 KCl, 1 MgCl2 and 5 mM HEPES; adjusted to pH 7.4 with NaOH.
Analysis and curve fitting was performed using Prism V3.02 (GraphPad Software, San Diego, California, USA, www.graphpad.com). Concentration-response data for each oocyte was normalised to the maximum current for that oocyte. For inhibition curves, antagonists were routinely co-applied in the presence of agonist. For PXN, oocytes were also pre-treated with the compound for 20 s. A 2 min wash was used between drug applications. The mean and S.E.M. for a series of oocytes was plotted against agonist or antagonist concentration and iteratively fitted (GraphPad Prism v3.02) to the following Hill equation:(1) IA=Imin+Imax−Imin/1+10^nH(logA50−logA) where A is the concentration of ligand present; IA is the current in the presence of ligand concentration A; Imin is the current when A = 0; Imax is the current when A = ∞ , A50 is the concentration of A which evokes a current equal to (Imax + Imin)/2; and nH is the Hill coefficient. Results are presented as mean ± S.E.M.. Statistical analysis was performed using ANOVA in conjunction with a Dunnett’s post-hoc test.

human 5-HT3A receptors = target: T2, human 5-HT3A receptors (Homo sapiens, UniProt P46098); format: binding
T2 construct: expressed in transfected cells; host or cells: Xenopus laevis oocytes (cRNA from pGEMHE)
T2 sequence (P46098 24-478): T1 sequence (P46098 24-478)
Description: (§1) Human embryonic kidney (HEK) 293 cells were maintained on 90 mm tissue culture plates at 37 °C and 7% CO2 in a humidified atmosphere. They were cultured in DMEM:F12 with GlutaMAX™ I media (Dulbecco’s Modified Eagle’s Medium /Nutrient Mix F12 (1:1), Invitrogen, Paisley, UK) containing 10% foetal calf serum. For radioligand binding studies, cells in 90 mm dishes were transfected using polyethyleneimine (PEI): 30 μl PEI (1 mg /ml), 5 μl cDNA and 1 ml DMEM were incubated for 10 min at room temperature, added drop wise to a 80–90% confluent plate, and incubated for 3–4 days before use.
(§2) Competition binding (8 point) was performed on at least three separate plates of transfected cells. […] Reactions were incubated for at least 1 h at 4 °C and terminated by vacuum filtration using a Brandel cell harvester onto GF/B filters pre-soaked in 0.3% polyethyleneimine. Radioactivity was determined by scintillation counting using a Beckman BCLS6500 (Fullerton, California, USA). Data were analysed by iterative curve fitting (GraphPad Prism v3.02) according to the equation:(5) BL=Bmin+Bmax−Bmin/1+10^nH(logL50−logL) where L is the concentration of ligand present; BL is the binding in the presence of ligand concentration L; Bmin is the binding when L = 0; Bmax is the binding when L = ∞, L50 is the concentration of L which gives a binding equal to (Bmax + Bmin)/2; and nH is the Hill coefficient. Results are presented as mean ± S.E.M.. Statistical analysis was performed using ANOVA in conjunction with a Dunnett’s post-hoc test.

human 5-HT3AB receptors [2] = target: T1, human 5-HT3AB receptors; format: binding
Description: as §1, §2

[3] = IC50, inhibition of 5-HT EC50 response (28 μM 5-HT)
[4] = pIC50, inhibition of 5-HT EC50 response (28 μM 5-HT)

| Compound | IC50 at heteromers (5-HT3AB) relative to 5-HT3A (human 5-HT3AB receptors [1]) | IC50 (human 5-HT3AB receptors [1]; [3]) | Hill slope (human 5-HT3AB receptors [1]) | IC50 (human 5-HT3AB receptors [1]; [4]) | Effect on binding of [3H]granisetron (1 nM) (human 5-HT3A receptors) | Effect on binding of [3H]granisetron (1 nM) (human 5-HT3AB receptors [2]) | Effect on binding of [3H]granisetron (1 nM) (human 5-HT3A receptors; compound 5 mM) | Effect on binding of [3H]granisetron (1 nM) (human 5-HT3AB receptors [2]; compound 5 mM) | Effect on binding of [3H]granisetron (1 nM) (human 5-HT3A receptors; compound 2.5 mM) | Effect on binding of [3H]granisetron (1 nM) (human 5-HT3AB receptors [2]; compound 2.5 mM) |
| --- | --- | --- | --- | --- | --- | --- | --- | --- | --- | --- |
| CC(C)(C)[C@]1(O)CC2OC(=O)CC23C(=O)OC2OC(=O)[C@H](O)C231 (stereo partly shown) [BB, bilobalide] | ~6 fold | 3200 µM | 0.75 ± 0.13 | 3160 µM | not affected | not affected | – | – | – | – |
| C=C(C)[C@@H]1[C@H]2OC(=O)[C@@H]1[C@]1(O)C[C@H]3O[C@]34C(=O)O[C@H]2[C@]14C [PXN, picrotoxinin] | ~6 fold | 62 µM | 0.68 ± 0.10 | 63.1 µM | – | – | not affected | not affected | – | – |
| ginkgolide B [GB] | ~6 fold | – | 0.52 ± 0.14 | – | – | – | – | – | not affected | not affected |
